According to patent publication US20230145835A1, “Modulators of Alpha-4-beta-7 Integrin and MAdCAM” (48HD Biopharma Inc., priority 2021, published 2023):
Where two headings read alike, the source gives them in different places. Numbered stars: 1 amine (or outer) side, 2 acyl side, 3 side chain; on linkers, the order of the positions; unused ones are H or OH. Bridge positions count the residues as written; N and C are the ends. Square brackets hold non-standard residues; d marks the D form. Peptide text beside a SMILES is read from it. I, II: the chains in the order shown. CO(CH2CH2O)5CH2CH2CO = O=C(CCOCCOCCOCCOCCOCCC(=O)[*:2])[*:1]; X3 = O=C(/C=N/OCCCCCCOc1cc(C[*:2])cc(C[*:3])c1)[*:1]; X1 = O=C(C=NOCCCCCCOc1cc(C[*:2])cc(C[*:3])c1)[*:1]; X5 = O=C(CCCCCCOc1cc(C[*:2])cc(C[*:3])c1)[*:1]; hSer = N[C@@H](CCO)C(=O)O; Nle = CCCC[C@H](N)C(=O)O

Target: T1, rh-integrin α4β7/LPAM-1 (Homo sapiens, UniProt P13612+P26010)
T1 sequence (P13612 34-977 limits assumed): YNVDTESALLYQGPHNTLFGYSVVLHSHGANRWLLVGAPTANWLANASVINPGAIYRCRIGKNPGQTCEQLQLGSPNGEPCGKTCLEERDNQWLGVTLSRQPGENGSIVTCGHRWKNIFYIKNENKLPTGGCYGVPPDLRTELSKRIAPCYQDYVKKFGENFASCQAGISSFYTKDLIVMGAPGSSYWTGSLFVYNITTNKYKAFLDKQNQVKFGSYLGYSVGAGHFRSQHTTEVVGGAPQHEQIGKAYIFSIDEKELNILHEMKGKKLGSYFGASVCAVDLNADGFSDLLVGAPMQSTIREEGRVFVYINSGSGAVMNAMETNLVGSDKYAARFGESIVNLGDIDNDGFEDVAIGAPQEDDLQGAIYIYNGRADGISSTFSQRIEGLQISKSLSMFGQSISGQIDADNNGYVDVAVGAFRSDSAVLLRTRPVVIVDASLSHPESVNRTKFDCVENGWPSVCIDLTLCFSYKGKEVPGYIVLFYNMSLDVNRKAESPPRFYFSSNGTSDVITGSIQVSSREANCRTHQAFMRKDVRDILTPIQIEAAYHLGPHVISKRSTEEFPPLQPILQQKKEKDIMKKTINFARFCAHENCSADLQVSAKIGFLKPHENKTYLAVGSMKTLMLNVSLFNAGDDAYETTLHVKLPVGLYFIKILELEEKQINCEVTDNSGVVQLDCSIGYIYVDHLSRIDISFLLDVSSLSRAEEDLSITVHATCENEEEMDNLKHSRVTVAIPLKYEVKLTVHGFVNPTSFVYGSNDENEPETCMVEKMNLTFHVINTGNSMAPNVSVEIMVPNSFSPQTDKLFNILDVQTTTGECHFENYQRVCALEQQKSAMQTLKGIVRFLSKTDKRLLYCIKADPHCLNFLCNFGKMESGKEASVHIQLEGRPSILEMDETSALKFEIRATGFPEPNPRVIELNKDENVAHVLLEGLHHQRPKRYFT
T1 sequence (P26010 20-723 limits assumed): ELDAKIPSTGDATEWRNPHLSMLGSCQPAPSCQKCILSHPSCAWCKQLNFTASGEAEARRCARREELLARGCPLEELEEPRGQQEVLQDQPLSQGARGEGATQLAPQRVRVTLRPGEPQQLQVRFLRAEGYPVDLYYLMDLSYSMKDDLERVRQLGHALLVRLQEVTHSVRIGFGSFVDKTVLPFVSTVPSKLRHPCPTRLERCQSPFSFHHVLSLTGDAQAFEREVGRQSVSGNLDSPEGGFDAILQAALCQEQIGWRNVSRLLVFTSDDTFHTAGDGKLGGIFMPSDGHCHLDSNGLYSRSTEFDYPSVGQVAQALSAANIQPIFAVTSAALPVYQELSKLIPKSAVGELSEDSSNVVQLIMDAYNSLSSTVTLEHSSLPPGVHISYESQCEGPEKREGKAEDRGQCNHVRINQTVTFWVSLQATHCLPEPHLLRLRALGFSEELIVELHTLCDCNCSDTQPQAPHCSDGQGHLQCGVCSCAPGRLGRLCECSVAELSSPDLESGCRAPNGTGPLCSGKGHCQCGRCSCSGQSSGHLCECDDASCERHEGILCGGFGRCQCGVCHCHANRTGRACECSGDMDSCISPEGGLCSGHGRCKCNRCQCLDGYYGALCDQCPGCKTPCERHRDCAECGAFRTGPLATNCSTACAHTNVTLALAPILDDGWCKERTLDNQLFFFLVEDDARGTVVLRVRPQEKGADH
Assay: α4β7-MadCAM Competition ELISA (Example 4)
Type: binding
Experimental: After washing with wash buffer, 200 μL assay buffer was added to each well and incubated for one hour at 28° C. After another wash with wash buffer, 100 μL of a MAdCAM and peptide mixture in assay buffer was added to each well and incubated for one hour at 28° C., followed by washing with wash buffer.

[1] = Table 3 Representative compounds, inhibition of MAdCAM binding to coated α4β7, read-out: IC50
[2] = competition ELISA, 4 μg/mL α4β7 coated, MAdCAM and peptide mixture, 28° C., read-out: IC50

`CC(C)C[C@@H]1NC(=O)CNC(=O)[C@H](Cc2ccc(O)cc2)NC(=O)[C@H](CC(=O)O)NC(=O)[C@H](CO)NC(=O)[C@@H]2CSCc3cc(cc(c3)OCCCCCCO/N=C/C(=O)N[C@@H](C)C(=O)N2)CSC[C@@H](C(N)=O)NC(=O)[C@H](CCC(N)=O)NC1=O` [compound 86, TSL6- SACSDTGLQC] (ACSDYGLQC-NH2; linker N-2-9 via X3) showed an IC50 [1] of 70700 nM.

With `CSCC[C@@H]1NC(=O)[C@H](CCC(N)=O)NC(=O)[C@@H]2CSCc3cc(cc(c3)OCCCCCCO/N=C/C(=O)N[C@@H](Cc3ccccc3)C(=O)N2)CSC[C@@H](C(N)=O)NC(=O)[C@H](C)NC(=O)[C@H](CCCCN)NC(=O)[C@H](CCC(=O)O)NC(=O)[C@H](Cc2ccccc2)NC1=O` [compound 102, TSL6- SFCQMFEKAC] (FCQMFEKAC-NH2; linker N-2-9 via X3) the IC50 [1] was 178000 nM.

With `CCCC[C@@H]1NC(=O)[C@@H]2CCCN2C(=O)[C@@H]2CSCc3cc(cc(c3)OCCCCCCO/N=C/C(=O)N[C@@H](CCCNC(=N)N)C(=O)N2)CSC[C@@H](C(N)=O)NC(=O)[C@H](CCC(=O)O)NC(=O)[C@H](CCC(N)=O)NC(=O)[C@H](Cc2c[nH]c3ccccc23)NC(=O)[C@H]([C@@H](C)CC)NC(=O)[C@H](CC(=O)O)NC1=O` [compound 9] (RCP[Nle]DIWQEC-NH2; linker N-2-10 via X3) the IC50 [1] was 187 nM.

Work on `CC(C)C[C@@H]1NC(=O)[C@@H]2CCCN2C(=O)[C@@H]2CSCc3cc(cc(c3)OCCCCCCO/N=C/C(=O)N[C@@H](CCCCN)C(=O)N2)CSC[C@@H](C(N)=O)NC(=O)[C@H](CCC(=O)O)NC(=O)[C@H](C)NC(=O)[C@@H]2CCCN2C(=O)[C@H]([C@@H](C)O)NC(=O)[C@H](CC(=O)O)NC1=O` [compound 35, TSL6- SKCPLDTPAEC] (KCPLDTPAEC-NH2; linker N-2-10 via X3) yielded an IC50 [1] of 796 nM.

`CC[C@H](C)[C@@H]1NC(=O)[C@H](CC(=O)O)NC(=O)[C@H](CCSC)NC(=O)[C@@H]2CCCN2C(=O)[C@@H]2CSCc3cc(cc(c3)OCCCCCCO/N=C/C(=O)N[C@@H](CCCCN)C(=O)N2)CSC[C@@H](C(N)=O)NC(=O)[C@H]([C@@H](C)O)NC(=O)[C@@H]2CCCN2C1=O` [compound 18] (KCPMDIPTC-NH2; linker N-2-9 via X3) was tested, and the IC50 [1] was 345 nM.

For `CCCC[C@@H]1NC(=O)[C@@H]2CCCN2C(=O)[C@@H]2CSCc3cc(cc(c3)OCCCCCCC(=O)NCC(=O)N[C@@H](C)C(=O)N2)CSC[C@@H](C(=O)O)NC(=O)[C@H](CCC(=O)O)NC(=O)[C@H](CCC(N)=O)NC(=O)[C@H](Cc2c[nH]c3ccccc23)NC(=O)[C@H](C(C)C)NC(=O)[C@H](CC(=O)O)NC1=O` [SEQ ID NO: 122] (GACP[Nle]DVWQEC-OH; linker N-3-11 via X5; C-terminus assumed), the IC50 [2] was 740 nM.

In the case of `CC(C)C[C@@H]1NC(=O)[C@@H]2CCCN2C(=O)[C@@H]2CSCc3cc(cc(c3)OCCCCCCO/N=C/C(=O)N[C@@H](C)C(=O)N2)CSC[C@@H](C(N)=O)NC(=O)[C@H](CCC(=O)O)NC(=O)[C@H](Cc2ccc(O)cc2)NC(=O)[C@@H]2CCCN2C(=O)C([C@@H](C)O)NC(=O)[C@H](CC(=O)O)NC1=O` (stereo in doubt) [compound 43, TSL6- SACPLDTPYEC], the IC50 [1] is reported as 1450 nM.

With `CSCC[C@@H]1NC(=O)/C=N/OCCCCCCOc2cc3cc(c2)CSC[C@H](NC1=O)C(=O)N[C@@H](Cc1ccc(O)cc1)C(=O)N1CCC[C@H]1C(=O)N[C@@H](CC(=O)O)C(=O)N[C@@H]([C@@H](C)O)C(=O)N[C@@H](Cc1ccc(O)cc1)C(=O)N[C@@H](Cc1cnc[nH]1)C(=O)N[C@H](C(N)=O)CSC3` [compound 101, TSL6- SMCYPDTYHC] (MCYPDTYHC-NH2; linker N-2-9 via X3) the IC50 [1] was 167000 nM.

Work on `CC(C)C[C@@H]1NC(=O)[C@@H]2CCCN2C(=O)[C@@H]2CSCc3cc(cc(c3)OCCCCCCO/N=C/C(=O)N[C@@H](CCCCN)C(=O)N2)CSC[C@@H](C(N)=O)NC(=O)[C@H](CCC(=O)O)NC(=O)[C@H](Cc2ccc(O)cc2)NC(=O)[C@@H]2CCCN2C(=O)[C@H](C)NC(=O)[C@H](CC(=O)O)NC1=O` [compound 42, TSL6- SKCPLDAPYEC] (KCPLDAPYEC-NH2; linker N-2-10 via X3) yielded an IC50 [1] of 1400 nM.

For `CCCC[C@@H]1NC(=O)[C@@H]2CCCN2C(=O)[C@@H]2CSCc3cc(cc(c3)OCCCCCCC(=O)NCC(=O)N[C@@H](CCCNC(=N)N)C(=O)N2)CSC[C@@H](C(N)=O)NC(=O)[C@H](CCC(=O)O)NC(=O)[C@H](CCC(N)=O)NC(=O)[C@H](Cc2c[nH]c3ccccc23)NC(=O)[C@H]([C@@H](C)CC)NC(=O)[C@H](CC(=O)O)NC1=O` [compound 4] (GRCP[Nle]DIWQEC-NH2; linker N-3-11 via X5), the IC50 [1] was 75 nM.

`CSCC[C@@H]1NC(=O)[C@@H]2CCCN2C(=O)[C@@H]2CSCc3cc(cc(c3)OCCCCCCO/N=C/C(=O)N[C@@H](CCCNC(=N)N)C(=O)N2)CSC[C@@H](C(N)=O)NC(=O)[C@H](CCC(=O)O)NC(=O)CNC(=O)[C@H](C)NC(=O)[C@H](C(C)C)NC(=O)[C@H](CC(=O)O)NC1=O` [compound 23, TSL6- SRCPMDVAGEC] (RCPMDVAGEC-NH2; linker N-2-10 via X3) showed an IC50 [1] of 511 nM.

In the case of `CC[C@H](C)[C@@H]1NC(=O)[C@H](CC(=O)O)NC(=O)[C@H](CCOC)NC(=O)[C@@H]2CCCN2C(=O)[C@@H]2CSCc3cc(cc(c3)OCCCCCCO/N=C/C(=O)N[C@@H](CCCNC(=N)N)C(=O)N2)CSC[C@@H](C(N)=O)NC(=O)[C@H](CCC(=O)O)NC(=O)[C@H](Cc2ccc(O)cc2)NC(=O)[C@H](Cc2c[nH]c3ccccc23)NC1=O` [compound 48, TSL6- SRCP{Hse(OMe)} DIWYEC] (RCP[hSer](Me)DIWYEC-NH2; linker N-2-10 via X3), the IC50 (IC50, Table 3 Representative compounds, inhibition of MAdCAM binding to coated α4β7) is reported as 1710 nM.

`NC(=O)[C@@H]1CSCc2cc3cc(c2)OCCCCCCO/N=C/C(=O)N[C@@H](CC(=O)O)C(=O)N[C@@H](CSC3)C(=O)N[C@@H](Cc2ccc(O)cc2)C(=O)N2CCC[C@H]2C(=O)N[C@@H](CC(=O)O)C(=O)N[C@@H](Cc2ccccc2)C(=O)N[C@@H](Cc2ccc(O)cc2)C(=O)N[C@@H](Cc2cnc[nH]2)C(=O)N1` [compound 96, TSL6- SDCYPDFYHC] (DCYPDFYHC-NH2; linker N-2-9 via X3) showed an IC50 [1] of 124000 nM.

`CC[C@H](C)[C@@H]1NC(=O)[C@H](CC(=O)O)NC(=O)[C@H](CCSC)NC(=O)[C@@H]2CCCN2C(=O)[C@@H](NC(=O)[C@H](CCCNC(=N)N)NC(=O)[C@H](CO)NC(C)=O)CSSC[C@@H](C(=O)N[C@@H](CCCCNC(=O)CCOCCOCCOCCOCCOCCC(=O)NCCCC[C@H](NC(=O)[C@@H]2CSSC[C@H](NC(=O)[C@H](CCCNC(=N)N)NC(=O)[C@H](CO)NC(C)=O)C(=O)N3CCC[C@H]3C(=O)N[C@@H](CCSC)C(=O)N[C@@H](CC(=O)O)C(=O)N[C@@H]([C@@H](C)CC)C(=O)N[C@@H](C)C(=O)NCC(=O)N[C@@H](CCC(=O)O)C(=O)N2)C(N)=O)C(N)=O)NC(=O)[C@H](CCC(=O)O)NC(=O)CNC(=O)[C@H](C)NC1=O` [compound 49] (I: Ac-SRCPMDIAGECK-NH2 / II: Ac-SRCPMDIAGECK-NH2; disulfide I:3-I:11, II:3-II:11; linker I:12-II:12 via CO(CH2CH2O)5CH2CH2CO) gave an IC50 [1] of 1730 nM.

In the case of `CC(C)C[C@@H]1NC(=O)[C@H](Cc2ccccc2)NC(=O)[C@@H]2CSCc3cc(cc(c3)OCCCCCCON=CC(=O)N[C@@H]([C@@H](C)O)C(=O)N2)CSC[C@@H](C(=O)O)NC(=O)[C@H](CC(N)=O)NC(=O)[C@H](CCCCN)NC(=O)[C@H](C(C)C)NC(=O)[C@H](CC(=O)O)NC1=O` [SEQ ID NO: 10] (TCFLDVKNC-OH; linker N-2-9 via X1), the IC50 [2] is reported as 311000 nM.
